Laboratory results: BindingDB's records for doi:10.1124/jpet.106.103382 (Wyeth Research, 2006)

What was measured:
[1] = target: Muscarinic acetylcholine receptor M3 (Homo sapiens, UniProt P20309)
Adenosine receptor A1 = target: T1, Adenosine receptor A1 (Homo sapiens, UniProt P30542)
T1 sequence (P30542 whole entry): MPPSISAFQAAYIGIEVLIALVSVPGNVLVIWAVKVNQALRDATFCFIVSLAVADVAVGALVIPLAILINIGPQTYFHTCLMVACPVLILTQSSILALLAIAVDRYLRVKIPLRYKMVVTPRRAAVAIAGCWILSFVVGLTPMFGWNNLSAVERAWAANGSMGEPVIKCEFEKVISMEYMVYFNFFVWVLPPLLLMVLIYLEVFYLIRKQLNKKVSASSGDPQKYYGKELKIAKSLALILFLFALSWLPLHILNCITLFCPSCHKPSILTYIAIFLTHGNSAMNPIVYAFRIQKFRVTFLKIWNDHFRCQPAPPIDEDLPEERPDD

Adenosine receptor A2b = target: T2, Adenosine receptor A2b (Bos taurus, UniProt Q1LZD0)
T2 sequence (Q1LZD0 whole entry): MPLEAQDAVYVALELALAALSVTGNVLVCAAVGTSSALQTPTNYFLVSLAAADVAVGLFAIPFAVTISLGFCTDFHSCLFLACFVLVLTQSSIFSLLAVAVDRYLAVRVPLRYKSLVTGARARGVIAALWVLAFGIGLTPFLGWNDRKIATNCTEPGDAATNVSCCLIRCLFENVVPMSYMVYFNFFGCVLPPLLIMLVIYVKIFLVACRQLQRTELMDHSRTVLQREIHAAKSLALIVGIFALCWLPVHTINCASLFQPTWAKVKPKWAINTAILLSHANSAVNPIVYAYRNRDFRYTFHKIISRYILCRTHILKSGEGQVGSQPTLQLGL

[2] = target: Histamine H2 receptor (Homo sapiens) (UniProt P25021)
[3] = target: T3, Muscarinic acetylcholine receptor M4 (Homo sapiens, UniProt P08173)
T3 sequence (P08173 whole entry): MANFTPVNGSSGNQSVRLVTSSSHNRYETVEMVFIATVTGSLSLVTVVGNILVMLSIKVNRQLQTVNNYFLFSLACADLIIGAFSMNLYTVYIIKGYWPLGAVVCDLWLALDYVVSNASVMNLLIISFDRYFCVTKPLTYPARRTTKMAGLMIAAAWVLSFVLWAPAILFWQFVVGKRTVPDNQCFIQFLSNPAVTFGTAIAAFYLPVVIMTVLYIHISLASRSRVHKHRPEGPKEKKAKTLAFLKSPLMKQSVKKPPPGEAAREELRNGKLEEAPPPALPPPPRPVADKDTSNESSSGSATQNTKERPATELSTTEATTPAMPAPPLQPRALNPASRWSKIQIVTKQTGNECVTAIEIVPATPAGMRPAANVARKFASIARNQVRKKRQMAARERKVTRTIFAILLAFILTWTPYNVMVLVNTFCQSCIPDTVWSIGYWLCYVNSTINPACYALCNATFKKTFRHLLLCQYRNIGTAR

[4] = target: Histamine H3 receptor (Homo sapiens) (UniProt Q9Y5N1)
[5] = target: T4, Muscarinic acetylcholine receptor M5 (Homo sapiens, UniProt P08912)
T4 sequence (P08912 whole entry): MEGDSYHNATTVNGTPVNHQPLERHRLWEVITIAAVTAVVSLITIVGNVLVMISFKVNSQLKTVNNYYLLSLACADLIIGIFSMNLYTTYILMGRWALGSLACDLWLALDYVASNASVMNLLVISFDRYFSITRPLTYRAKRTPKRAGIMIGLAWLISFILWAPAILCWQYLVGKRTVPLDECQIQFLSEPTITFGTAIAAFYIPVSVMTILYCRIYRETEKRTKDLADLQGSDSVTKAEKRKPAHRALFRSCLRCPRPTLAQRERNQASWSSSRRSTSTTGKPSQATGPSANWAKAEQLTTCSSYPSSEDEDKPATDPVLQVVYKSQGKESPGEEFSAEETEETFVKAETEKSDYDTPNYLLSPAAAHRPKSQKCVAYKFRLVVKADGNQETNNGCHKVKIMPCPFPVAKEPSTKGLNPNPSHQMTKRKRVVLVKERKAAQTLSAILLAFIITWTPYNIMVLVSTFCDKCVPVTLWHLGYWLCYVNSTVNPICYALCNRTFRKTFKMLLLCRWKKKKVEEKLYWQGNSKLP

Cannabinoid receptor 2 = Cannabinoid receptor 2 (Homo sapiens, UniProt P34972)
[6] = target: Histamine H1 receptor (Homo sapiens) (UniProt P35367)
D(2) dopamine receptor = D(2) dopamine receptor (Homo sapiens, UniProt P14416)
[7] = target: D(3) dopamine receptor (Homo sapiens) (UniProt P35462)
Transporter = Transporter (Cavia porcellus, UniProt H0WCX4)
D(1A) dopamine receptor = D(1A) dopamine receptor (Homo sapiens, UniProt P21728)
Cannabinoid receptor 1 = Cannabinoid receptor 1 (Homo sapiens, UniProt P21554)
[8] = target: T5, Muscarinic acetylcholine receptor M2 (Homo sapiens, UniProt P08172)
T5 sequence (P08172 whole entry): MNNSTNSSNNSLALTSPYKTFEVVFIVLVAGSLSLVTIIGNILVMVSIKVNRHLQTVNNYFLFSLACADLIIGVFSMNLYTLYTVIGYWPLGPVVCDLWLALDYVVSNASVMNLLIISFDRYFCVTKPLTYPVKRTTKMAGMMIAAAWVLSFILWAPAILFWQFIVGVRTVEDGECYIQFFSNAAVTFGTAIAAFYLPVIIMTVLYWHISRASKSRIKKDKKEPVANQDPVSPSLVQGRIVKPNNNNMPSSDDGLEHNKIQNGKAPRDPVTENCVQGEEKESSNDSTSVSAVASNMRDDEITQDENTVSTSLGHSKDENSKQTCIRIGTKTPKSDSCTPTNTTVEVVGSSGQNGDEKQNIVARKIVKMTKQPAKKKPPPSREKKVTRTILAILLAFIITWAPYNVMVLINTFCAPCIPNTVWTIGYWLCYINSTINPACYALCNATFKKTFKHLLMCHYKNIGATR

[9] = target: T6, Muscarinic acetylcholine receptor M1 (Homo sapiens, UniProt P11229)
T6 sequence (P11229 whole entry): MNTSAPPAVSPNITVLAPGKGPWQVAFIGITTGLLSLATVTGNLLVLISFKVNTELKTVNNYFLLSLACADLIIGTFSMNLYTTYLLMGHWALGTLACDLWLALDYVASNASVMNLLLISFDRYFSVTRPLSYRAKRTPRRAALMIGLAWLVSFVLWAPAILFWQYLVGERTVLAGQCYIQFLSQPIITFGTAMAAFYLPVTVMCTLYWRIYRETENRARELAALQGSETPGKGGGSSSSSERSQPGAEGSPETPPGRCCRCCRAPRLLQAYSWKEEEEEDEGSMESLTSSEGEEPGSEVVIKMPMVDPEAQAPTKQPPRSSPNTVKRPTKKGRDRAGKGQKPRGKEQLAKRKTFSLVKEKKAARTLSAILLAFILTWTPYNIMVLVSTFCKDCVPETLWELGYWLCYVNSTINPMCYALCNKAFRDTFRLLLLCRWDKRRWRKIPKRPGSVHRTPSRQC

Chain of Muscarinic acetylcholine receptor M3 (P20309 whole entry): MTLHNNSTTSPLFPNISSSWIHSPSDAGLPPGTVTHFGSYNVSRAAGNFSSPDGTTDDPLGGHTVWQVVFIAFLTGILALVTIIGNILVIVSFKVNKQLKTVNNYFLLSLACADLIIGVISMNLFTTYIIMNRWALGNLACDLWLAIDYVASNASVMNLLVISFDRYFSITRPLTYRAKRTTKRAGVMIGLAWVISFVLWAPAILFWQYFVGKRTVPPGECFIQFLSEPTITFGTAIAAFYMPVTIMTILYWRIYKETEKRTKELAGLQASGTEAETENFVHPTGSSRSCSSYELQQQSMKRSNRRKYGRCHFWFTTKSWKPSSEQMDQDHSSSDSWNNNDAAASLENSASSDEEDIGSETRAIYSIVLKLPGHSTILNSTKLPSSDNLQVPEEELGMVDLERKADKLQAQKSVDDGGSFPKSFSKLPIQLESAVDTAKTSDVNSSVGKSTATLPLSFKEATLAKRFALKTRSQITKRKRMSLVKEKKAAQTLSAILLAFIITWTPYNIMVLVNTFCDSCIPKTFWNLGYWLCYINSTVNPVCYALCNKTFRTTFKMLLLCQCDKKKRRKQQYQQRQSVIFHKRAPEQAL
Chain of Histamine H1 receptor (Homo sapiens) (P35367 whole entry, looked up): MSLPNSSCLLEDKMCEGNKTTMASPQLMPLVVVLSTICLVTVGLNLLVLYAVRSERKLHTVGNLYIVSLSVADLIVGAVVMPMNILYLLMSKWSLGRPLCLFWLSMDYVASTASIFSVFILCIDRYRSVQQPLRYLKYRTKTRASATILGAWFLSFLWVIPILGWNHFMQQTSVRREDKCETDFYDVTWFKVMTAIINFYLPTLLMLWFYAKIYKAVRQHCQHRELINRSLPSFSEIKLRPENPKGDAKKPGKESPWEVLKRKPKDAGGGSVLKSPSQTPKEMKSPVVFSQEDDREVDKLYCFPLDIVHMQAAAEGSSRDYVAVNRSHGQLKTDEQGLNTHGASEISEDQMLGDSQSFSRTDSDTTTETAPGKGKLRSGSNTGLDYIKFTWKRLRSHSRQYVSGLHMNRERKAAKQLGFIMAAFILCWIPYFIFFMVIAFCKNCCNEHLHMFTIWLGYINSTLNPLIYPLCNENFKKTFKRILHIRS
Chain of D(3) dopamine receptor (Homo sapiens) (P35462 whole entry, looked up): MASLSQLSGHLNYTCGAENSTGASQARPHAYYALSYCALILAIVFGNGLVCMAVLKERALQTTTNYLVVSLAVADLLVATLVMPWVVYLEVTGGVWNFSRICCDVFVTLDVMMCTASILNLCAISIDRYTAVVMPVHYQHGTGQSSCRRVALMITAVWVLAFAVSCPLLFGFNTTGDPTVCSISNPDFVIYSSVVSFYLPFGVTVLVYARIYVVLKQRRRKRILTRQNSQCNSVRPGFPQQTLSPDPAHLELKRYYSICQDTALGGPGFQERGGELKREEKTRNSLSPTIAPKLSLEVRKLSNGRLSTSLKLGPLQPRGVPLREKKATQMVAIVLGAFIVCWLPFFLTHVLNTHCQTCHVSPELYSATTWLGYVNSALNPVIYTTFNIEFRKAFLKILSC
Chain of Transporter (H0WCX4 whole entry): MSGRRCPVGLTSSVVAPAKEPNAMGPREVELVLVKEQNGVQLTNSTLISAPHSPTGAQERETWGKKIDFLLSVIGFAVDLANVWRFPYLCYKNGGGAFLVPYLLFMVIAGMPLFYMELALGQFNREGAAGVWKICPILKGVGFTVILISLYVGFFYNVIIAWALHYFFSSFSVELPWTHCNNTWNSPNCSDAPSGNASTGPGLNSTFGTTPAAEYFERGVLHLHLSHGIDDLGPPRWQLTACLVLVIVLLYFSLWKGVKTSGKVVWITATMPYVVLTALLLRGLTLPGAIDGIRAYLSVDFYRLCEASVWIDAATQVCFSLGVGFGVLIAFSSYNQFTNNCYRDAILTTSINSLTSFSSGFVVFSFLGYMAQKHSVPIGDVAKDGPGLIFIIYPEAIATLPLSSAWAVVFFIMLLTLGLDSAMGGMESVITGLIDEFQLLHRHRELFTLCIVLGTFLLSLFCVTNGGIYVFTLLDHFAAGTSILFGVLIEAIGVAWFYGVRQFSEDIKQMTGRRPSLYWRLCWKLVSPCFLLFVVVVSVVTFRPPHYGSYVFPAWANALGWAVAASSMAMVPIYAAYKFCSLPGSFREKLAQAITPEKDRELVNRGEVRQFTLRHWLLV
Chain of Histamine H3 receptor (Homo sapiens) (Q9Y5N1 whole entry, looked up): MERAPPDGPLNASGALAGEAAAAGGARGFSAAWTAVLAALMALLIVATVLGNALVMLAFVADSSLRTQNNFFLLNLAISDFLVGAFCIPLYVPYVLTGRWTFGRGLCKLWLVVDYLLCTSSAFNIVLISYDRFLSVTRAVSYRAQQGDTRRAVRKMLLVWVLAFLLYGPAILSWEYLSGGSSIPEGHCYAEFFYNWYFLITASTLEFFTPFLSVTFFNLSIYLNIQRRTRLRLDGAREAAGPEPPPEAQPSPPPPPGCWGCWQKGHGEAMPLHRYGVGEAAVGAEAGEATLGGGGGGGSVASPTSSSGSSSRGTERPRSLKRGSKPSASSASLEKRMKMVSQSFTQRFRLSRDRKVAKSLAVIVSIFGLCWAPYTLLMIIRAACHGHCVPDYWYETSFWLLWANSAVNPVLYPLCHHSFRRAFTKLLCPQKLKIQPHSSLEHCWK
Chain of Histamine H2 receptor (Homo sapiens) (P25021 whole entry, looked up): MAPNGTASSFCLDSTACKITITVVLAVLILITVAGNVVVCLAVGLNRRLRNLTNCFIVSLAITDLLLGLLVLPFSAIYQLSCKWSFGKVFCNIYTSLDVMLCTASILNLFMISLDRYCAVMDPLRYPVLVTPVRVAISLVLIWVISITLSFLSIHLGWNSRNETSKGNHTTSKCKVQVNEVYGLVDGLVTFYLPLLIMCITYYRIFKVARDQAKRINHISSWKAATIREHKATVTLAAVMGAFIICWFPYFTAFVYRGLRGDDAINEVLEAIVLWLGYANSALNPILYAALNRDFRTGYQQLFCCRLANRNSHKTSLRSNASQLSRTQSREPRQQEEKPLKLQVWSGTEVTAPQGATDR
Chain of Cannabinoid receptor 1 (P21554 whole entry): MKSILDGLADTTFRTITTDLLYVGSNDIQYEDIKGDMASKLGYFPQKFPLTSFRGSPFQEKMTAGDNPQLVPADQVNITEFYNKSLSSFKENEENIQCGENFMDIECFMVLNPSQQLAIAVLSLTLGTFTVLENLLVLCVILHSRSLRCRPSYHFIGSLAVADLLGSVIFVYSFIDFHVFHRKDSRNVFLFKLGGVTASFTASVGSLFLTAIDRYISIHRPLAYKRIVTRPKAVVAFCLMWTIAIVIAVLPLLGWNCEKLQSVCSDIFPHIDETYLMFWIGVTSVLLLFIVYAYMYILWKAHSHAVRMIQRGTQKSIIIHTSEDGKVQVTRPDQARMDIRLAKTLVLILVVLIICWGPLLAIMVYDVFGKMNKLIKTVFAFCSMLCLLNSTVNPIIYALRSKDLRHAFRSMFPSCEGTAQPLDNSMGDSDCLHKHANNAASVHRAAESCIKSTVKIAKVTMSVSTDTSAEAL
Chain of D(1A) dopamine receptor (P21728 whole entry): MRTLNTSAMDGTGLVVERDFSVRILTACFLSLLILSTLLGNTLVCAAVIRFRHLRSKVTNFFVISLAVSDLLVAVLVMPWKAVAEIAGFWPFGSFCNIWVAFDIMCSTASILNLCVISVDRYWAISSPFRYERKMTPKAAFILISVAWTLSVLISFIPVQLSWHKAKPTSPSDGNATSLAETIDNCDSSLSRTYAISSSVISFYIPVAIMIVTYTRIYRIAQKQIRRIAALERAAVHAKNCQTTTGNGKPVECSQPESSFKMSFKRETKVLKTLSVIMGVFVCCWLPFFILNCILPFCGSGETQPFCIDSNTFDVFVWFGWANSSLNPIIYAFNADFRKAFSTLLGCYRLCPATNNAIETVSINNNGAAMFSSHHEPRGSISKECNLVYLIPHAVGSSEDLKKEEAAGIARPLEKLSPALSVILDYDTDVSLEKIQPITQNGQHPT
Chain of Cannabinoid receptor 2 (P34972 whole entry): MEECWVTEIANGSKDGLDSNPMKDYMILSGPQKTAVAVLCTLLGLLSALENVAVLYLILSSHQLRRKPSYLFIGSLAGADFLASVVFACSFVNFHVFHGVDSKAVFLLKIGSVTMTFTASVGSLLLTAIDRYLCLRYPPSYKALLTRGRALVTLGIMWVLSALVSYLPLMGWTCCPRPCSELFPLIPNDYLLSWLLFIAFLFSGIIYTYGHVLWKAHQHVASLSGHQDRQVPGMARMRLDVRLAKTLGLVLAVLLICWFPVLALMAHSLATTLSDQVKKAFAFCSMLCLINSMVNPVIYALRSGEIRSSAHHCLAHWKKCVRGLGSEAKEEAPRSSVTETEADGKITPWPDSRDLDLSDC
Chain of D(2) dopamine receptor (P14416 whole entry): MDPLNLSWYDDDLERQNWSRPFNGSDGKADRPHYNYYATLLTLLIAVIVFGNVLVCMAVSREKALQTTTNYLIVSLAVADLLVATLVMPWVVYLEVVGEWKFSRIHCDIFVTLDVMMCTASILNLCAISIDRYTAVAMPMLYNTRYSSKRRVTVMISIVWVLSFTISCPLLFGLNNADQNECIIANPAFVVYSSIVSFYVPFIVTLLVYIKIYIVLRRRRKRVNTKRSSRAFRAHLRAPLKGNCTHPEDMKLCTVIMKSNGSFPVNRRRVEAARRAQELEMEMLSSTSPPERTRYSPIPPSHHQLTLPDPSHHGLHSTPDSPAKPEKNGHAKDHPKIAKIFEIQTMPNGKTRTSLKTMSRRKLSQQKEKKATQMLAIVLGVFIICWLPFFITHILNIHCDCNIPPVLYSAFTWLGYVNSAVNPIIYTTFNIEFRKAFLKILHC

IC50 [1]: > 10 µM
IC50 (Adenosine receptor A1): > 10 µM
IC50 (Adenosine receptor A2b): > 10 µM
IC50 [2]: > 10 µM
IC50 [3]: > 10 µM
IC50 [4]: > 10 µM
IC50 [5]: > 10 µM
IC50 (Cannabinoid receptor 2): > 10 µM
IC50 [6]: > 10 µM
IC50 (D(2) dopamine receptor): > 10 µM
IC50 [7]: > 10 µM
IC50 (Transporter): > 10 µM
IC50 (D(1A) dopamine receptor): > 10 µM
IC50 (Cannabinoid receptor 1): > 10 µM
IC50 [8]: > 10 µM
IC50 [9]: > 10 µM
Structure (SMILES): CN(C)CC(c1ccc(O)cc1)C1(O)CCCCC1 (stereo unspecified) [CAS_386750-22-7]
